{"source": "patent US20250129012A1", "about": "“ANTI-INFLAMMATORY AND ANALGESIC COMPOUNDS AND USE THEREOF” (JIANGSU ATOM BIOSCIENCE AND PHARMACEUTICAL CO., LTD., priority 2021, published 2025)", "key": {"[1]": {"test_system": "TNF-α", "test": "Inflammatory factor experiment A: TNF-α in gouty arthritis rats", "type": "in vivo, SD rats", "conditions": "synovial tissue of knee joints; dose 0.6 mg/kg gavage; day 10", "protocol": "(§1) Compounds 14, 17 and 26 were prepared by grinding with 0.5% CMC-Na before administration and into a suspension for gavage at the corresponding concentration (0.06 mg/mL), with a dosage volume of 10 mL/kg. Colchicine, purchased from Sun Chemical Technology (Shanghai) Co., Ltd. with batch no. 49ETRRAS, and was prepared by grinding with 0.5% CMC-Na before administration and into a suspension for gavage at the corresponding concentration (0.06 mg/mL), with a dosage volume of 10 mL/kg.\n(§2) The compounds in each group were prepared into a suspension of the corresponding concentration, and the dosage volume was 10 mL/kg.\n(§3) The crystalline arthritis model was prepared by intra-articular injection of urate crystals (40 mg/mL in the left ankle joint of each rat). Different doses of the test compounds were given separately by gavage administration. The day of administration was defined as day 1 of the experiment, and the compounds were administered once a day for 10 consecutive days (pre-administration of the drug for 7 days prior to modeling, modeling on day 8, and continuation of the drug for 3 days). The experiment ended on day 10. […]"}, "[2]": {"test_system": "IL-6", "test": "Inflammatory factor experiment A: IL-6 in gouty arthritis rats", "type": "in vivo, SD rats", "conditions": "synovial tissue of knee joints; dose 0.6 mg/kg gavage; day 10", "protocol": "as §1, §2, §3"}, "[3]": {"test_system": "gouty arthritis rats (sodium urate, right ankle and knee joint cavities)", "test": "Pharmacodynamics experiment B on gouty arthritis rats: gait score", "type": "in vivo, SD rats", "conditions": "for Gait Score: dose 0.6 mg/kg gavage, mean", "in_short": "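Male SD rats (180-220 g) received test compounds by gavage as 0.5% CMC-Na suspensions, once daily for 7 days before modeling and for 3 days afterward. Gouty arthritis was induced by injecting 0.2 mL sodium urate solution into the right ankle and knee joint cavities. Gait was graded 0-3 using modified Coderre criteria, and group mean scores were compared with the model group by ANOVA-Dunnett T-test (P<0.05).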"}, "[4]": {"test_system": "IL-1β", "test": "Inflammatory factor experiment B: IL-1β in knee synovial tissue (ELISA)", "type": "in vivo, SD rats", "conditions": "Rattus norvegicus, po; synovial tissue of knee joints, 48 h after modeling; dose 0.6 mg/kg; read-out: IL-1β percentage decrease %"}, "[5]": {"test_system": "gouty arthritis rats (sodium urate, right ankle and knee joint cavities)", "test": "Pharmacodynamics experiment B on gouty arthritis rats: ankle swelling rate", "type": "in vivo, SD rats", "conditions": "Rattus norvegicus, po, dose 0.6 mg/kg gavage, read-out: Swelling rate (ankle)", "in_short": "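Male SD rats dosed by gavage at 0.6 mg/kg (0.5% CMC-Na suspension) daily for 7 days before and 3 days after injection of 0.2 mL sodium urate solution into right ankle and knee joints. Ankle circumference measured before and 2-48 h after modeling; swelling rate = swelling degree/baseline ×100%, mean values.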"}, "[6]": {"test_system": "IL-6", "test": "Inflammatory factor experiment B: IL-6 in knee synovial tissue (ELISA)", "type": "in vivo, SD rats", "conditions": "Rattus norvegicus, po; synovial tissue of knee joints, 48 h after modeling; dose 0.6 mg/kg; read-out: IL-6 percentage decrease %"}, "[7]": {"test_system": "TNF-α", "test": "Inflammatory factor experiment B: TNF-α in knee synovial tissue (ELISA)", "type": "in vivo, SD rats", "conditions": "Rattus norvegicus, po; synovial tissue of knee joints, 48 h after modeling; dose 0.6 mg/kg; read-out: TNF-α percentage decrease %"}, "[8]": {"test_system": "ICR mice", "test": "Acute toxicity test in mice by single administration", "type": "in vivo", "conditions": "14 days, deaths/animals", "protocol": "(§4) Compounds 34, 48, 55 and 58 were ground with 0.5% CMC-Na before administration, and prepared into a suspension of the corresponding concentration for gavage, with an administration volume of 0.1 mL/10 g.\n(§5) ICR mice, SPF grade, weighing 18-20 g, 6-8 weeks old, were provided by Nantong University. The Laboratory Animal Production License was SCXK (Su) 2016-0010 and Laboratory Animal Use License was SYXK (Su) 2017-0035.\n(§6) After overnight fasting, the drug was administered once by gavage in a volume of 0.1 mL/10 g. The normal group was given the corresponding volume of 0.5% CMC-Na solution according to body weight. The state of the animal was observed after administration, the animals were weighed daily and the number of deaths was recorded for 14 consecutive days."}, "[9]": {"test": "Acute toxicity test in mice by single administration", "type": "in vivo, ICR mice", "conditions": "both sexes, ICR, mouse, in vivo, po; acute toxicity, mice, single gavage; read-out: Maximum tolerated dose (MTD)", "protocol": "as §4, §5, §6"}}, "note": "Like-named read-outs stand apart in the source and are kept apart here. Marks after values point to notes of the source that are not given here."}
{"compound": "COc1cc2c(c(OC)c1OC)-c1cc(Br)c(OC)c(=O)cc1[C@@H](NC(C)=O)CC2", "note": "[Compound 14, (S)—N-(11-bromo-1,2,3,10-tetramethoxy-9-oxo-5,6,7,9-tetrahydrobenzo[a]heptalen-7-yl)acetamide]", "values": [{"measurement": "Decreased TNF-α percentage %", "setting": "[1]", "value": 125.78, "unit": "%"}, {"measurement": "Decreased IL-6 percentage %", "setting": "[2]", "value": 119.58, "unit": "%"}]}
{"compound": "COC(=O)c1ccc2c(cc1=O)[C@@H](NC(C)=O)CCc1cc(OC)c(OC)c(OC)c1-2", "note": "[Compound 34, methyl (S)-7-acetamido-1,2,3-trimethoxy-9-oxo-5,6,7,9-tetrahydrobenzo[a]heptalen-10-carboxylate]", "values": [{"measurement": "Gait Score", "setting": "[3]; 2 h", "value": 0}, {"measurement": "Gait Score", "setting": "[3]; 4 h", "value": 0}, {"measurement": "Gait Score", "setting": "[3]; 8 h", "value": "0**"}, {"measurement": "Gait Score", "setting": "[3]; 10 h", "value": "0.1**"}, {"measurement": "Gait Score", "setting": "[3]; 24 h", "value": 0}, {"measurement": "Gait Score", "setting": "[3]; 48 h", "value": 0}, {"measurement": "Gait versus model group, in words", "setting": "[3]; compounds 0.6 mg/kg, colchicine 0.6 and 1.2 mg/kg", "value": "significant improvement in gait occurred at different time points"}, {"measurement": "inhibition in vivo at 0.6 mg/kg", "setting": "[4]", "value": 93.1, "unit": "%"}, {"measurement": "change in vivo at 0.6 mg/kg", "setting": "[5]; 2 h", "value": 3.98, "unit": "%"}, {"measurement": "change in vivo at 0.6 mg/kg", "setting": "[5]; 4 h", "value": 8.32, "unit": "%"}, {"measurement": "change in vivo at 0.6 mg/kg", "setting": "[5]; 8 h", "value": 16.2, "unit": "%"}, {"measurement": "change in vivo at 0.6 mg/kg", "setting": "[5]; 10 h", "value": 17.3, "unit": "%"}, {"measurement": "change in vivo at 0.6 mg/kg", "setting": "[5]; 24 h", "value": 21.1, "unit": "%"}, {"measurement": "change in vivo at 0.6 mg/kg", "setting": "[5]; 48 h", "value": 9.96, "unit": "%"}, {"measurement": "inhibition in vivo at 0.6 mg/kg", "setting": "[6]", "value": 115, "unit": "%"}, {"measurement": "inhibition in vivo at 0.6 mg/kg", "setting": "[7]", "value": 82.9, "unit": "%"}, {"measurement": "Mortality rate", "setting": "[8]; single gavage dose 50 mg/kg", "value": "0/6"}, {"measurement": "Mortality rate", "setting": "[8]; single gavage dose 100 mg/kg", "value": "0/6"}, {"measurement": "Mortality rate", "setting": "[8]; single gavage dose 400 mg/kg", "value": "0/6"}, {"measurement": "Mortality rate", "setting": "[8]; single gavage dose 600 mg/kg", "value": "0/6"}, {"measurement": "MTD at 14 days", "setting": "[9]", "value": "> 600", "unit": "mg/kg"}]}
